Test [1] deals with T1, Glycogen phosphorylase, muscle form (Oryctolagus cuniculus, UniProt P00489).
T1 sequence (P00489 whole entry): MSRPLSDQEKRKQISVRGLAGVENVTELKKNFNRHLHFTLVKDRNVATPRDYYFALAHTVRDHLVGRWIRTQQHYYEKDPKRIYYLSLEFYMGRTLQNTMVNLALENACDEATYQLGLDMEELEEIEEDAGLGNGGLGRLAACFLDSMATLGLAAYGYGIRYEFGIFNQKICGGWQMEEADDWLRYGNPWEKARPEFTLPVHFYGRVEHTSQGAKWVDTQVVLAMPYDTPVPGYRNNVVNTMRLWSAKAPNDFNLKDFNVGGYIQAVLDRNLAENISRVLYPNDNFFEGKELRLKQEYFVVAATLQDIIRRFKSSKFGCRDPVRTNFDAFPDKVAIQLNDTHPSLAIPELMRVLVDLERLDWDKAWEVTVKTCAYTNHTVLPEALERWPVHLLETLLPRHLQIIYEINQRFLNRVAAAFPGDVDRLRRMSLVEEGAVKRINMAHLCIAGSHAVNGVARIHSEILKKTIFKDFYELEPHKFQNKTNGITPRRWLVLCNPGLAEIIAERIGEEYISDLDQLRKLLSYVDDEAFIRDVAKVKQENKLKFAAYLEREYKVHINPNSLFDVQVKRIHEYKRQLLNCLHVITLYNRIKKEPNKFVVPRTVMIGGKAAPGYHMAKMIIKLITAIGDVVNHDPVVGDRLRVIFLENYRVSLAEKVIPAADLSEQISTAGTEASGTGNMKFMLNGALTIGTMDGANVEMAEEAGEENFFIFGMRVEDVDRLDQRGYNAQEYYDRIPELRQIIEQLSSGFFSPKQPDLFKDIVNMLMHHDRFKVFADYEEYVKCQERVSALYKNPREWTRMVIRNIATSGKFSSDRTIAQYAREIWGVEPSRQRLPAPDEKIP
Description: Inhibition of rabbit muscle glycogen phosphorylase-a assessed as formation of inorganic phosphate from glucose-1-phosphate by colorimetry.

Test [2] has as its target T2, Glycogen phosphorylase, muscle form (Oryctolagus cuniculus) (UniProt P00489).
T2 sequence (whole entry): T1 sequence (P00489 whole entry)
Description: Inhibition of rabbit muscle glycogen phosphorylase-a assessed as formation of inorganic phosphate from glucose-1-phosphate at 222 uM by colorimetry.

Test [3] addresses T2, Glycogen phosphorylase, muscle form (Oryctolagus cuniculus). Put plainly: Inhibition of rabbit muscle glycogen phosphorylase-a assessed as formation of inorganic phosphate from glucose-1-phosphate at 444 uM by colorimetry.
Test [4] has the same target. Description: Inhibition of rabbit muscle glycogen phosphorylase-a assessed as formation of inorganic phosphate from glucose-1-phosphate at 44 uM by colorimetry.
For test [5] the target is unchanged. Description: Inhibition of rabbit muscle glycogen phosphorylase-a assessed as formation of inorganic phosphate from glucose-1-phosphate at 90 uM by colorimetry.
The target is the same in test [6]. Description: Inhibition of rabbit muscle glycogen phosphorylase-a assessed as formation of inorganic phosphate from glucose-1-phosphate at 20 uM by colorimetry.
Test [7] shares this target. Description: Inhibition of rabbit muscle glycogen phosphorylase-a assessed as formation of inorganic phosphate from glucose-1-phosphate at 11.1 uM by colorimetry.
Test [8] shares this target. Description: Inhibition of rabbit muscle glycogen phosphorylase-a assessed as formation of inorganic phosphate from glucose-1-phosphate at 440 uM by colorimetry.
For test [9] the target is unchanged. Put plainly: Inhibition of rabbit muscle glycogen phosphorylase-a assessed as formation of inorganic phosphate from glucose-1-phosphate at 4.4 mM by colorimetry.

Molecules are shown by their SMILES.

For orientation: IC50 means the point on the concentration scale where inhibition reaches its midpoint. Usually inhibition stands for the percentage by which the read-out fell short of the control.

Regarding `Cc1ccc(S(=O)(=O)n2cccc2CNc2cccn(CC(=O)NCc3ccc(Cl)c(Cl)c3)c2=O)cc1`, the IC50 in [1] (read-out: IC50) was 3.4 µM.

Regarding `O=C(Cn1cccc(NCc2ccc(Cl)cc2)c1=O)Nc1ccc(Cl)c(Cl)c1`, the IC50 entry in [1] is “Not Active”.

`Cc1ccc(S(=O)(=O)Nc2cccn(CC(=O)NCc3ccc(Cl)c(Cl)c3)c2=O)cc1`: the inhibition in [2] is 37%.

Turning to `O=C(Cn1cccc(NCCCc2ccccc2)c1=O)NCCc1ccc(Cl)c(Cl)c1`, the IC50 in test [1] (read-out: IC50) stood at 68 µM.

For the compound `CCOC(=O)Cn1cccc(NCc2ccc(Cl)cc2)c1=O`, in [2], the inhibition was found to be 75%.

`CCOC(=O)Cn1cccc(NCc2ccc(Cl)c(Cl)c2)c1=O`: in test [2], the inhibition was 43%.

`O=C(Cn1cccc(NCc2ccccc2)c1=O)NCCc1ccc(Cl)c(Cl)c1`: in test [3], the inhibition turned out to be 80%.

With `O=C(Cn1cccc(NCc2ccc(Cl)cc2)c1=O)NCc1ccc(Cl)c(Cl)c1`, in [1] (read-out: IC50), the IC50 came to 2.1 µM.

For `O=C(Cn1cccc(NCc2ccc(Cl)c(Cl)c2)c1=O)Nc1ccc(Cl)c(Cl)c1`, the inhibition in [2] came out at 98%. In test [1] (read-out: IC50(app)), the IC50 turned out to be 18.5 µM.

Take `O=C(Cn1cccc(NCc2ccccc2Cl)c1=O)Nc1ccc(Cl)c(Cl)c1`: in test [1] (read-out: IC50), the IC50 was 57 µM.

As to `O=C(Cn1cccc(NC(=O)c2ccccc2)c1=O)Nc1ccc(Cl)c(Cl)c1`, the inhibition in test [2] is 100%. Further, in test [1] (read-out: IC50(app)), the IC50 amounted to 13 µM.

As for `O=C(Cn1cccc(NCc2ccc(Cl)c(Cl)c2)c1=O)NCCc1ccc(Cl)cc1Cl`, the inhibition in [4] came out at 22%.

As to `O=C(Cn1cccc(NCc2ccccc2)c1=O)Nc1ccc(Cl)c(Cl)c1`, the inhibition in test [5] stood at 41%.

Turning to `O=C(Cn1cccc(NCc2cccc(Cl)c2)c1=O)Nc1ccc(Cl)c(Cl)c1`, the inhibition in test [6] was found to be 33%.

As to `O=C(Cn1cccc(NCc2ccc(Cl)c(Cl)c2)c1=O)NCCc1ccccc1`, in test [1] (read-out: IC50), the half-maximal inhibitory concentration (IC50) was determined as 31.3 µM.

For `O=C(Cn1cccc(NCc2ccc([N+](=O)[O-])cc2)c1=O)NCc1ccc(Cl)c(Cl)c1`, in [7], the inhibition is 100%. In test [1] (read-out: IC50(app)), the half-inhibitory concentration (IC50) turned out to be 2.5 µM.

Turning to `O=C(Cn1cccc(NCc2ccccn2)c1=O)NCc1ccc(Cl)c(Cl)c1`, the IC50 entry in [1] was “Not Active”.

Take `O=C(Cn1cccc(NCc2cccs2)c1=O)NCc1ccc(Cl)c(Cl)c1`: the inhibition in test [2] was 73%. For the same compound, in test [1] (read-out: IC50(app)), the IC50 worked out at 19.5 µM.

Take `O=C(Cn1cccc(NCc2ccc(Cl)c(Cl)c2)c1=O)NCc1ccccc1`: the IC50 in test [1] (read-out: IC50) stood at 10.2 µM.

Consider `CCOC(=O)Cn1cccc(NCc2cccn2S(=O)(=O)c2ccc(C)cc2)c1=O`, for which the inhibition in [2] is 75%.

Consider `O=C(Cn1cccc(NCc2ccc(Cl)c(Cl)c2)c1=O)Nc1ccccc1`, for which the inhibition in test [8] stood at 19%.

With `CCCNC(=O)Cn1cccc(NCc2ccc(Cl)c(Cl)c2)c1=O`, the inhibition in test [2] was 67%.

`O=C(Cn1cccc(NCc2ccccc2)c1=O)Nc1ccccc1`: the half-inhibitory concentration (IC50) entry in [1] is reported as “Not Active”.

Regarding `O=C(Cn1cccc(NCc2cccc(Cl)c2)c1=O)NCc1ccc(Cl)c(Cl)c1`, the IC50 in [1] (read-out: IC50) worked out at 5.66 µM.

Take `O=C(Cn1cccc(NCCCc2ccccc2)c1=O)NCc1ccc(Cl)c(Cl)c1`: the inhibition in [9] stood at 33%.

As for `O=C(Cn1cccc(NCc2ccccc2)c1=O)NCCc1ccc(Cl)cc1Cl`, the inhibition in test [4] amounted to 93%.

On to `O=C(Cn1cccc(NCc2ccccc2Cl)c1=O)NCc1ccc(Cl)c(Cl)c1`, for which the inhibition in [2] was 77%. Also, the IC50 in test [1] (read-out: IC50) is 18.5 µM.

For `O=C(Cn1cccc(NCc2ccc(Cl)c(Cl)c2)c1=O)NCc1ccc(Cl)c(Cl)c1`, the concentration for half-maximal inhibition (IC50) in test [1] (read-out: IC50) worked out at 1.92 µM.

Turning to `O=C(Cn1cccc(NCc2ccc(Cl)c(Cl)c2)c1=O)NCCc1ccc(Cl)c(Cl)c1`, in test [7], the inhibition was found to be 98%. For the same compound, the half-maximal inhibitory concentration (IC50) in [1] (read-out: IC50(app)) stood at 22.5 µM.

The values are drawn from ChEMBL document CHEMBL3769302, “2-Oxo-1,2-dihydropyridinyl-3-yl amide-based GPa inhibitors: Design, synthesis and structure-activity relationship study” (Eur J Med Chem, 2016).
